Key:
PC3 tumor-bearing mice = assay: Ex vivo biodistribution of 177Lu-labeled radiotracers in PC3 xenografts; details: for Biodistribution Blood / Biodistribution Bone / Biodistribution Heart / Biodistribution Intestine / Biodistribution Kidney / Biodistribution Liver / Biodistribution Lung / Biodistribution Muscle / Biodistribution PC3-Tumor / Biodistribution Pancreas / Biodistribution Spleen / Biodistribution Stomach / Tumor/Blood ratio / Tumor/Liver ratio / Tumor/Muscle ratio / Tumor/Pancreas ratio: PC3 xenografts
Procedure: U87MG and PC3 tumor-bearing mice: Female athymic BALB/c (6 weeks/16–20 g) and male athymic BALB/c nude mice (6 weeks/20–25 g) were implanted with U87MG or PC3 cells (5 × 10^6/100 µL PBS) into their right shoulder, respectively. The animals were used for biodistribution and PET/SPECT/CT imaging studies (Animal License No: BE98/2021).
Ten pmol (0.06–0.08 MBq) of the radiotracers in 100 µL of NaCl 0.9% were injected intravenously into the tail vein of PC3 tumor-bearing mice. Biodistribution studies were conducted at 1, 4, 24, and 48 h after the injection of [^177Lu]Lu-DOTA.SA.FAPi and at 4, 24, 48, 72, and 96 h after the injection of [^177Lu]Lu-DOTAGA.(SA.FAPi)2 (Supplemental Data). […]
was counted in a γ-counter. Biodistribution data are given as the percent of injected activity per gram of tissue (% IA/g) and as means ± SD (n = 4). […]
[177Lu]Lu-DOTA.SA.FAPi and [177Lu]Lu-DOTAGA.(SA.FAPi)2
Ten pmol (0.06-0.08 MBq) of [177Lu]Lu-monomer and [177Lu]Lu-dimer in 100 µL of NaCl 0.9% were injected intravenously into the tail vein of PC3 tumor-bearing mice. The PC3 tumor-bearing mice were used between the 15th and 17th day after the xenograft implantation and its size was 281 ± 75 mm3. Animals were terminally anesthetized by intraperitoneal injection of an overdose of pentobarbital natrium (150 mg/kg; Streuli Pharma SA, Uznach, Switzerland) 1, 4, 24 and 48 h after the injection of [177Lu]Lu-DOTA.SA.FAPi and at 4, 24, 48, 72 and 96 h after the injection of [177Lu]Lu-DOTAGA.(SA.FAPi)2. The organs of interest were dissected and weighed, and the radioactivity in the tissue samples was counted in a γ-counter. The biodistribution data are given as the percent of injected activity per gram of tissue (% IA/g) and as means ± SD (n = 4). […]
0.25mm. The reconstructed data were corrected for Lutetium-177 decay, normalized, and filtered using a Gaussian 3D algorithm with a 2 mm isotropic kernel and generated using PMOD software. […]
The color scale of […]
the SPECT images was set as 0 to 13% IA/mL allowing for qualitative comparisons among the images.

healthy mice = assay: Biodistribution in healthy male and female mice; assay type: in vivo; details: 1 h p.i.
Procedure: Two groups of healthy mice (males and females; n = 4/group) were injected with 10 pmol of [^68Ga]Ga-DOTA.SA.FAPi (0.08–0.1 MBq) in 100 µL of NaCl 0.9% and biodistribution studies were conducted at 1 h p.i. (Supplemental Data).

`N#C[C@@H]1CC(F)(F)CN1C(=O)CNC(=O)c1ccnc2ccc(OCCCCNc3c(NCCNC(=O)CN4CCN(CC(=O)[O-])CCN(CC(=O)[O-])CCN(CC(=O)[O-])CC4)c(=O)c3=O)cc12.[177Lu+3]` [[^177Lu]Lu-DOTA.SA.FAPi] was tested, and the PC3 tumor uptake (PC3 tumor-bearing mice; PC3 tumor-bearing mice, 4 h p.i.) was 8.9 ± 0.2 %I.A./g, the “Biodistribution Blood” value (PC3 tumor-bearing mice; 1 h) was 9.1 ± 1.8 % IA/g and the “Biodistribution Bone” value (PC3 tumor-bearing mice; 1 h) was 4.0 ± 0.5 % IA/g. For the same compound, the “Biodistribution Heart” value (PC3 tumor-bearing mice; 1 h) was 3.1 ± 0.7 % IA/g, the “Biodistribution Intestine” value (PC3 tumor-bearing mice; 1 h) was 3.2 ± 0.4 % IA/g and the “Biodistribution Kidney” value (PC3 tumor-bearing mice; 1 h) was 4.3 ± 0.5 % IA/g. The “Biodistribution Liver” value (PC3 tumor-bearing mice; 1 h) was 3.8 ± 0.2 % IA/g, the “Biodistribution Lung” value (PC3 tumor-bearing mice; 1 h) was 4.3 ± 0.6 % IA/g and the “Biodistribution Muscle” value (PC3 tumor-bearing mice; 1 h) was 3.7 ± 1.0 % IA/g. The “Biodistribution PC3-Tumor” value (PC3 tumor-bearing mice; 1 h) was 9.6 ± 0.9 % IA/g, the “Biodistribution Pancreas” value (PC3 tumor-bearing mice; 1 h) was 12 ± 1.1 % IA/g and the “Biodistribution Spleen” value (PC3 tumor-bearing mice; 1 h) was 3.0 ± 0.1 % IA/g. The “Biodistribution Stomach” value (PC3 tumor-bearing mice; 1 h) was 2.5 ± 0.3 % IA/g, the Tumor/Blood ratio (PC3 tumor-bearing mice; 1 h) was 1.1 and the Tumor/Liver ratio (PC3 tumor-bearing mice; 1 h) was 2.2 ± 0.2. For the same compound, the Tumor/Muscle ratio (PC3 tumor-bearing mice; 1 h) was 2.8 ± 1.0, the Tumor/Pancreas ratio (PC3 tumor-bearing mice; 1 h) was 0.8 ± 0.1 and the “Biodistribution Blood” value (PC3 tumor-bearing mice; 4 h) was 3.1 ± 0.2 % IA/g. For the same compound, the “Biodistribution Bone” value (PC3 tumor-bearing mice; 4 h) was 4.2 ± 0.6 % IA/g, the “Biodistribution Heart” value (PC3 tumor-bearing mice; 4 h) was 1.5 ± 0.3 % IA/g and the “Biodistribution Intestine” value (PC3 tumor-bearing mice; 4 h) was 1.8 ± 0.3 % IA/g. For the same compound, the “Biodistribution Kidney” value (PC3 tumor-bearing mice; 4 h) was 2.6 ± 0.03 % IA/g, the “Biodistribution Liver” value (PC3 tumor-bearing mice; 4 h) was 3.0 ± 0.1 % IA/g and the “Biodistribution Lung” value (PC3 tumor-bearing mice; 4 h) was 1.7 ± 0.07 % IA/g. The “Biodistribution Muscle” value (PC3 tumor-bearing mice; 4 h) was 2.3 ± 0.1 % IA/g, the “Biodistribution PC3-Tumor” value (PC3 tumor-bearing mice; 4 h) was 8.9 ± 0.2 % IA/g and the “Biodistribution Pancreas” value (PC3 tumor-bearing mice; 4 h) was 5.3 ± 0.4 % IA/g. For the same compound, the “Biodistribution Spleen” value (PC3 tumor-bearing mice; 4 h) was 1.7 ± 0.1 % IA/g, the “Biodistribution Stomach” value (PC3 tumor-bearing mice; 4 h) was 1.7 ± 0.5 % IA/g and the Tumor/Blood ratio (PC3 tumor-bearing mice; 4 h) was 2.9 ± 0.2. For the same compound, the Tumor/Liver ratio (PC3 tumor-bearing mice; 4 h) was 3.0 ± 0.1, the Tumor/Muscle ratio (PC3 tumor-bearing mice; 4 h) was 3.9 ± 0.1 and the Tumor/Pancreas ratio (PC3 tumor-bearing mice; 4 h) was 1.7 ± 0.2. For the same compound, the “Biodistribution Blood” value (PC3 tumor-bearing mice; 24 h) was 0.2 ± 0.09 % IA/g, the “Biodistribution Bone” value (PC3 tumor-bearing mice; 24 h) was 0.7 ± 0.2 % IA/g and the “Biodistribution Heart” value (PC3 tumor-bearing mice; 24 h) was 0.1 ± 0.04 % IA/g. For the same compound, the “Biodistribution Intestine” value (PC3 tumor-bearing mice; 24 h) was 0.2 ± 0.02 % IA/g, the “Biodistribution Kidney” value (PC3 tumor-bearing mice; 24 h) was 0.6 ± 0.06 % IA/g and the “Biodistribution Liver” value (PC3 tumor-bearing mice; 24 h) was 1.9 ± 0.3 % IA/g. For the same compound, the “Biodistribution Lung” value (PC3 tumor-bearing mice; 24 h) was 0.2 ± 0.03 % IA/g, the “Biodistribution Muscle” value (PC3 tumor-bearing mice; 24 h) was 0.3 ± 0.04 % IA/g and the “Biodistribution PC3-Tumor” value (PC3 tumor-bearing mice; 24 h) was 1.8 ± 0.1 % IA/g. The “Biodistribution Pancreas” value (PC3 tumor-bearing mice; 24 h) was 0.3 ± 0.1 % IA/g, the “Biodistribution Spleen” value (PC3 tumor-bearing mice; 24 h) was 0.2 ± 0.03 % IA/g and the “Biodistribution Stomach” value (PC3 tumor-bearing mice; 24 h) was 0.1 ± 0.02 % IA/g. For the same compound, the “Biodistribution Blood” value (PC3 tumor-bearing mice; 48 h) was 0.01 ± 0.0 % IA/g, the “Biodistribution Bone” value (PC3 tumor-bearing mice; 48 h) was 0.1 ± 0.01 % IA/g and the “Biodistribution Heart” value (PC3 tumor-bearing mice; 48 h) was 0.03 ± 0.02 % IA/g. The “Biodistribution Intestine” value (PC3 tumor-bearing mice; 48 h) was 0.04 ± 0.0 % IA/g, the “Biodistribution Kidney” value (PC3 tumor-bearing mice; 48 h) was 0.12 ± 0.07 % IA/g and the “Biodistribution Liver” value (PC3 tumor-bearing mice; 48 h) was 1.1 ± 0.1 % IA/g. The “Biodistribution Lung” value (PC3 tumor-bearing mice; 48 h) was 0.05 ± 0.04 % IA/g, the “Biodistribution Muscle” value (PC3 tumor-bearing mice; 48 h) was 0.05 ± 0.07 % IA/g and the “Biodistribution PC3-Tumor” value (PC3 tumor-bearing mice; 48 h) was 1.0 ± 0.1 % IA/g. The “Biodistribution Pancreas” value (PC3 tumor-bearing mice; 48 h) was 0.06 ± 0.01 % IA/g, the “Biodistribution Spleen” value (PC3 tumor-bearing mice; 48 h) was 0.1 ± 0.06 % IA/g and the “Biodistribution Stomach” value (PC3 tumor-bearing mice; 48 h) was 0.05 ± 0.02 % IA/g.

In the case of `N#C[C@@H]1CC(F)(F)CN1C(=O)CNC(=O)c1ccnc2ccc(OCCCCNc3c(NCCNC(=O)CN4CCN(CC(=O)[O-])CCN(CC(=O)[O-])CCN(CC(=O)[O-])CC4)c(=O)c3=O)cc12.[68Ga+3]` [[^68Ga]Ga-DOTA.SA.FAPi], the “Biodistribution Blood” value (healthy mice; healthy female mice) is reported as 13.5 ± 4.1 % IA/g, the “Biodistribution Bone” value (healthy mice; healthy female mice) is reported as 5.0 ± 0.2 % IA/g and the “Biodistribution Heart” value (healthy mice; healthy female mice) is reported as 5.1 ± 0.9 % IA/g. The “Biodistribution Intestine” value (healthy mice; healthy female mice) was 3.0 ± 0.3 % IA/g, the “Biodistribution Kidney” value (healthy mice; healthy female mice) was 5.0 ± 0.7 % IA/g and the “Biodistribution Liver” value (healthy mice; healthy female mice) was 3.3 ± 0.4 % IA/g. For the same compound, the “Biodistribution Lung” value (healthy mice; healthy female mice) was 4.3 ± 1.6 % IA/g, the “Biodistribution Muscle” value (healthy mice; healthy female mice) was 6.3 ± 3.4 % IA/g and the “Biodistribution Pancreas” value (healthy mice; healthy female mice) was 7.6 ± 2.6 % IA/g. For the same compound, the “Biodistribution Spleen” value (healthy mice; healthy female mice) was 2.7 ± 0.7 % IA/g, the “Biodistribution Stomach” value (healthy mice; healthy female mice) was 1.7 ± 0.04 % IA/g and the “Biodistribution Blood” value (healthy mice; healthy male mice) was 8.5 ± 0.1 % IA/g. For the same compound, the “Biodistribution Bone” value (healthy mice; healthy male mice) was 1.5 ± 0.9 % IA/g, the “Biodistribution Heart” value (healthy mice; healthy male mice) was 3.1 ± 0.04 % IA/g and the “Biodistribution Intestine” value (healthy mice; healthy male mice) was 3.1 ± 0.2 % IA/g. The “Biodistribution Kidney” value (healthy mice; healthy male mice) was 3.5 ± 0.4 % IA/g, the “Biodistribution Liver” value (healthy mice; healthy male mice) was 2.3 ± 0.1 % IA/g and the “Biodistribution Lung” value (healthy mice; healthy male mice) was 2.7 ± 0.6 % IA/g. For the same compound, the “Biodistribution Muscle” value (healthy mice; healthy male mice) was 2.0 ± 0.3 % IA/g, the “Biodistribution Pancreas” value (healthy mice; healthy male mice) was 8.6 ± 0.1 % IA/g and the “Biodistribution Spleen” value (healthy mice; healthy male mice) was 2.3 ± 0.1 % IA/g. The “Biodistribution Stomach” value (healthy mice; healthy male mice) was 2.0 ± 0.3 % IA/g.
